Key:
C. elegans iPGM = molecular target: T1, C. elegans iPGM (Caenorhabditis elegans, UniProt G5EFZ1); assay: luminescent coupled-enzyme ATP-quantifying iPGM assay, C. elegans iPGM; assay type: biochemical
T1 sequence (G5EFZ1 1-539): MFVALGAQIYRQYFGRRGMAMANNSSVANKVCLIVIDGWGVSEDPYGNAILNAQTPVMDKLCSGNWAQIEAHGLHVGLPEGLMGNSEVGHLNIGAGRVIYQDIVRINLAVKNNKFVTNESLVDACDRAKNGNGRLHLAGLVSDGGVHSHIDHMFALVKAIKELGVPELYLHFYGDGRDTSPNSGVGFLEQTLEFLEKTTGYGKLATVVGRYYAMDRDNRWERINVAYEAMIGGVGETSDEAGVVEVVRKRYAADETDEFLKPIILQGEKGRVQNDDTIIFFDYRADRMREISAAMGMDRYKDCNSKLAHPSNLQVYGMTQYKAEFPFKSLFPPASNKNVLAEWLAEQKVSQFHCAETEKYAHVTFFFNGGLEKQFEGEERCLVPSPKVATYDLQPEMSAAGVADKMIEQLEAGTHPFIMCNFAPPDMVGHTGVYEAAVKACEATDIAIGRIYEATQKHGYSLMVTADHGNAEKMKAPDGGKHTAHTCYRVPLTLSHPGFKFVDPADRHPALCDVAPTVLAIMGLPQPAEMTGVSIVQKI

B. malayi iPGM = B. malayi iPGM (Brugia malayi, UniProt Q4VWF8); assay: luminescent coupled-enzyme ATP-quantifying iPGM assay, B. malayi iPGM; assay type: biochemical
Chain of B. malayi iPGM (Q4VWF8 whole entry): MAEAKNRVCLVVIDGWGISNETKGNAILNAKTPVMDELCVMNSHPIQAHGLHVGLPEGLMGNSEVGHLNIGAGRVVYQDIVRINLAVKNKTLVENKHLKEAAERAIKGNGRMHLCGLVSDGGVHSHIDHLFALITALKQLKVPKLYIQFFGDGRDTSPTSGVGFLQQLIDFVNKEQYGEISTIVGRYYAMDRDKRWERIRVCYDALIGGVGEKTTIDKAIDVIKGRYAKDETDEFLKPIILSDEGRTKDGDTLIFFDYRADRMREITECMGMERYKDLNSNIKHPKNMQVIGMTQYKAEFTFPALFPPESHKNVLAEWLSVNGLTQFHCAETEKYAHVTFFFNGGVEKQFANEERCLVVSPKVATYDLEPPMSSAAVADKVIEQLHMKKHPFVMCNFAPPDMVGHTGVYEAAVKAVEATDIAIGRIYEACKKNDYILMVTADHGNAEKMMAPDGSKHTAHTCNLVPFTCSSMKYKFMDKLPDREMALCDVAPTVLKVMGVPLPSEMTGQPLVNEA

W. bancrofti iPGM = molecular target: T2, W. bancrofti iPGM (Wuchereria bancrofti, UniProt B1P0R4); assay: biochemical
T2 sequence (B1P0R4 1-515): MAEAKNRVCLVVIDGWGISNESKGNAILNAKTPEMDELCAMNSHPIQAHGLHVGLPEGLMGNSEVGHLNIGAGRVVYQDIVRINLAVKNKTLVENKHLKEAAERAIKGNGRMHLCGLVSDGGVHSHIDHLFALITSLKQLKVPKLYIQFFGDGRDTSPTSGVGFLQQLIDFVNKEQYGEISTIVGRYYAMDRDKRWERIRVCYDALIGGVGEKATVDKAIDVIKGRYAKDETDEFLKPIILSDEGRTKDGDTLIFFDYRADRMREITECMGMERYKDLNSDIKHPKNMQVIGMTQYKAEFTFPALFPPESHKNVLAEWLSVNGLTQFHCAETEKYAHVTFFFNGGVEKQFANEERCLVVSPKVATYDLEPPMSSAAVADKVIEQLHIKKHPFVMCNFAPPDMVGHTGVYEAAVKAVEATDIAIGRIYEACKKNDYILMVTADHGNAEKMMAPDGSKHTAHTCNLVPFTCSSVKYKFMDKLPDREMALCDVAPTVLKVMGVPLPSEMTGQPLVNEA

E. coli iPGM = E. coli iPGM (Escherichia coli, UniProt P37689); assay: luminescent coupled-enzyme ATP-quantifying iPGM assay, E. coli iPGM; assay type: biochemical
Chain of E. coli iPGM (P37689 whole entry): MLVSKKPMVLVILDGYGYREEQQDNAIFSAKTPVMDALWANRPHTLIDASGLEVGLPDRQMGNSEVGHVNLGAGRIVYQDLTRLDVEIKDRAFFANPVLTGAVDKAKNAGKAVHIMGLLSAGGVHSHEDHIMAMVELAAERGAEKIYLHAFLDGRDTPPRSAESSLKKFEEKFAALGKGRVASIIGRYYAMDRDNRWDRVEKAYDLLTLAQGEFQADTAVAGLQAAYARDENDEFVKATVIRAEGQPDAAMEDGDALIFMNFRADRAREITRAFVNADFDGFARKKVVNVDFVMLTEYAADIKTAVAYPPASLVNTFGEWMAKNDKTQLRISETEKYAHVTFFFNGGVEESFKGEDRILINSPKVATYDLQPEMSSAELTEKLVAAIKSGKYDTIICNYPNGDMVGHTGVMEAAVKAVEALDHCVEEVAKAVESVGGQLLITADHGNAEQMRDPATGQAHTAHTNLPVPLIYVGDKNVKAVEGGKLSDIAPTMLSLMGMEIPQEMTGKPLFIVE

H. pylori iPGM = molecular target: T3, H. pylori iPGM (Helicobacter pylori, UniProt B5Z7X6); assay: biochemical
T3 sequence (B5Z7X6 1-491): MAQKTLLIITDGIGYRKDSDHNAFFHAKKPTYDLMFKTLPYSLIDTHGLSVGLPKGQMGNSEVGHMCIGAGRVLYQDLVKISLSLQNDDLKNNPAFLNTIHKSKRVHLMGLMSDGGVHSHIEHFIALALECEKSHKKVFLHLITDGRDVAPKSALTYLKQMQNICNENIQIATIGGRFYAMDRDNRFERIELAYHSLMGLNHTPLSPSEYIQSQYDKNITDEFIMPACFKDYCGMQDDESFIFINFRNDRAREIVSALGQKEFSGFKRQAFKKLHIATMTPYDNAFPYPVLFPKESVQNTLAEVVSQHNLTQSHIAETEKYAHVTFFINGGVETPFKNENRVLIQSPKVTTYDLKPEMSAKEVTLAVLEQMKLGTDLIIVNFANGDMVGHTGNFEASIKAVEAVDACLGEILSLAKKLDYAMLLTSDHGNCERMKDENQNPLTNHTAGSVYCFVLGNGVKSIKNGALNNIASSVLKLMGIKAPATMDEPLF

## CC(C)C[C@H](NC(=O)[C@H](Cc1ccc(O)cc1)NC(=O)[C@@H]1CSCC(=O)N[C@H](Cc2ccc(O)cc2)C(=O)N[C@@H](CC(=O)O)C(=O)N[C@@H](Cc2ccc(O)cc2)C(=O)N2CCC[C@H]2C(=O)NCC(=O)N[C@@H](CC(=O)O)C(=O)N[C@@H](Cc2ccc(O)cc2)C(=O)N1)C(=O)N[C@@H](Cc1ccc(O)cc1)C(=O)NCC(=O)N[C@H](C(=O)N[C@@H](CS)C(N)=O)[C@@H](C)O [Ce-2]
C. elegans iPGM
  AC50: 2.45 nM
B. malayi iPGM
  AC50: 2.69 nM
W. bancrofti iPGM
  AC50: 2.34 nM
E. coli iPGM
  AC50: 316 nM
H. pylori iPGM
  AC50: 3630 nM

— article PMC9900472 (ACS chemical biology, 2022)
